The target of experiment [1] is OcomOBP7. Put plainly: Fluorescence competitive binding assay (1-NPN displacement). The arrangement: species or system Ophraella communa. The note with it: 1-NPN 2 μM; for Ki: Ki = [IC50]/(1 + [1-NPN]/K1-NPN), OcomOBP7 2 μM, pH 7.4, read-out: Ki (dissociation constant); for IC50: recombinant OcomOBP7 2 μM, 50 mM Tris-HCl pH 7.4, ligand 2–20 μM. Here is the method: Based on previous research on the volatiles of A. artemisiifolia, 26 standard chemical odors were selected to verify the binding characteristics of OcomOBP7 using a fluorescence binding assay (Table 2).
(§1) Fluorescence competition binding experiments were performed using an F-380 fluorescence spectrophotometer (Gangdong Technology, Tianjin, China), and the quartz cuvette was 1 cm wide. The excitation and emission slits were 10 nm, the sensitivity was 2 s, the emission wavelength range was 360–500 nm, the excitation wavelength was 337 nm, and the scanning speed was 1200 nm/min. The fluorescent probe, 1-NPN, was dissolved in a chromatographic methanol solution at a concentration of 1 mM. The target protein was diluted to 2 μM with 50 mM Tris-HCl (pH 7.4), and 1 mL of protein diluent was added to the cuvette. The 1-NPN fluorescent probe was added to the protein diluent to obtain a final concentration of 2–20 μM and was allowed to stand for 30 s after mixing. The maximum fluorescence value for each addition of 1-NPN was recorded, and three replicates were used. The 1-NPN fluorescent probe was added to the protein diluent at a final concentration of 2 μM, mixed well, and allowed to stand for 30 s. The maximum fluorescence intensity of 1-NPN was recorded. The odorant ligand was then added at a final concentration of 2–20 μM, and the maximum fluorescence value produced by the mixed solution was determined.
The dissociation constants Ki of OcomOBP7 and the fluorescent ligand compounds were calculated using the Scatchard equation. The formula is as follows: Ki = [IC50]/(1 + [1-NPN]/K1-NPN), where [1-NPN] represents the concentration of unbound 1-NPN, and K1-NPN is the binding constant of the OcomOBP7/1-NPN complex.

The next experiment relates to O. communa. The arrangement: method as in previous experiment results (unpublished data). Particulars: ref previous experiment results (unpublished data); cited from earlier work.
In experiment [2] the test system is O. communa antennae. Put plainly: Electroantennography (EAG) after RNAi. Format: in vivo, Ophraella communa. Particulars: odorant 10 μg/μL in n-hexane, 10 μL; for EAG response of O. communa antennae: after injection of dsRNA (dsOBP7), 48 h; for average EAG response of O. communa antennae: dsEGFP control group, 48 h after injection. How it is done: dsRNA templates were synthesized by PCR using primers containing the T7 promoter sequence as templates. dsRNA was synthesized in vitro using a T7 RNAi Transcription Kit (Ambion Inc., Waltham, MA, USA) according to the manufacturer’s instructions. dsRNA was dissolved in DEPC water and its concentration determined using a Nanophotometer P330 (Implen, Germany). The quality of RNA was determined using 1% gel electrophoresis. Female and male adults with an initial emergence of <12 h were injected. A Nanoliter 2000 microinjector (WPI, Sarasota, FL, USA) was used to inject 1 ng of dsRNA into the pronotum of beetles. dsEGFP was used as a control. After injection, the beetles were kept in Petri dishes and fed fresh A. artemisiifolia leaves daily.
Based on the fluorescence binding experimental results, α-pinene, ocimene, and myrcene were used for the electrophysiological experiments. […] Therefore, the odorants in this experiment were dissolved in n-hexane at a final concentration of 10 μg/μL, with n-hexane alone serving as a blank control. Filter paper strips with 10 μL of odorant were placed in a Pasteur Pipette for EAG experiments. The head and end of one antenna of the O. communa adult were cut off with a blade 48 h after the injection of dsRNA. A glass electrode filled with KCl conductivity liquid was inserted into the incision of the head of the O. communa and then connected to the electroantennogram system. The antenna incision was connected to a glass electrode at the other end using a micromanipulator. Each odorant was stimulated for 0.2 s with an interval of more than 30 s. Each treatment consisted of more than 20 biological replicates. Finally, the response curve was recorded using the EAG2000 software.

For experiment [3], the target named is OcomOBP7. Put plainly: Binding of fluorescent probe 1-NPN to OcomOBP7 (binding curve, Scatchard). Particulars: OcomOBP7 2 μM, 1-NPN 2–20 μM, pH 7.4; read-out: binding constant (Kd) of the protein and probe 1-NPN. The arrangement: species or system Ophraella communa. How it is done:
as §1
The dissociation constants Ki of OcomOBP7 and the fluorescent ligand compounds were calculated using the Scatchard equation. […]

In experiment [4] the test system is O. communa antennae. Set-up: method as in a previous experiment. The note with it: ref a previous experiment; cited from earlier work.

Turning to `CC1=CC[C@H](C(C)C)C=C1` [α-phellandrene], on OcomOBP7 [1], the Ki was determined as 2.91 ± 0.42 µM and the IC50 was 4.59 µM.

`C=C(C)[C@H]1CC=C(C)CC1` [(R)-(+)-Dipentene]: at OcomOBP7 [1], the Ki amounted to 2.22 ± 0.11 µM and the IC50 amounted to 3.5 µM.

For (S)-(-)-Limonene, on OcomOBP7 [1], the Ki came out at 2.55 ± 0.4 µM and the IC50 amounted to 4.02 µM.

For the molecule `C=C(C)C1CC=C(C)CC1` (racemic) [DL-Limonene], on OcomOBP7 [1], the Ki amounted to 2.84 ± 0.2 µM and the IC50 stood at 4.48 µM.

In the case of `CC(=O)OC1CC2CCC1(C)C2(C)C` (stereo not drawn) [Bornyl acetate], on OcomOBP7 [1], the Ki was 20.37 ± 0.07 µM and the IC50 amounted to 32.2 µM.

In the case of `C=C1CCC2(C(C)C)CC12` (stereo not drawn) [Sabinene], on OcomOBP7 [1], the Ki is 4.75 ± 0.14 µM and the IC50 was 7.49 µM.

Turning to `CC1=CCC2CC1C2(C)C` (stereo not drawn) [α-Pinene], the “attraction of the beetles” value in the experiment with O. communa was “significantly attract”. In addition, at OcomOBP7 [1], the Ki stood at 6.55 ± 0.05 µM and the IC50 was found to be 10.3 µM. For the same molecule, in the experiment on O. communa antennae [2], the “EAG response of O. communa antennae” value is listed as 0.28 ± 0.02 and the “average EAG response of O. communa antennae” value (“average EAG response” below) is 0.36 ± 0.03.

With `C=CC(=C)CCC=C(C)C` [Myrcene], in the experiment with O. communa, the “attraction of the beetles” value was “significantly attract”. Further, at OcomOBP7 [1], the Ki is 3.97 ± 0.85 µM and the half-inhibitory concentration (IC50) was 6.26 µM. Further, in the experiment on O. communa antennae [2], the “EAG response of O. communa antennae” value was 0.09 ± 0.01 and the “average EAG response” value came out at 0.10 ± 0.01.

Turning to `CCCCCCCC` [n-Octane], on OcomOBP7 [1], the Ki was 0.67 ± 0.12 µM and the IC50 came to 1.05 µM.

Consider `CC1=CCC(C(C)C)=CC1` [Y-Terpinene], for which, on OcomOBP7 [1], the Ki was 4.7 ± 0.32 µM and the IC50 amounted to 7.42 µM.

Regarding `c1ccc(Nc2cccc3ccccc23)cc1` [1-NPN], the Kd on OcomOBP7 [3] amounted to 1.47 ± 0.2 µM.

On to `C=C1C2CCC(C2)C1(C)C` (stereo not drawn) [Camphene], for which, at OcomOBP7 [1], the Ki stood at 9.85 ± 0.66 µM and the IC50 was determined as 15.5 µM.

For the molecule `C=C1CCC2CC1C2(C)C` (stereo not drawn) [β-Pinene], on OcomOBP7 [1], the Ki amounted to 10.9 ± 0.59 µM and the IC50 was 17.2 µM.

As for `C=CC(=C)CC/C=C(\C)CCC=C(C)C` [(E)-β-farnesene], on OcomOBP7 [1], the Ki turned out to be 0.48 ± 0.04 µM and the IC50 was found to be 0.76 µM. The “activation of antennal response via the EAG method” value in the experiment on O. communa antennae [4] is listed as “cannot activate the antennal response”.

As for `C=CC(C)=CCC=C(C)C` [Ocimene], the “attraction of the beetles” value in the experiment with O. communa was “significantly attract”. Further, at OcomOBP7 [1], the Ki is 1.23 ± 0.11 µM and the IC50 came out at 1.94 µM. In the experiment with O. communa antennae [2], the “EAG response of O. communa antennae” value was 0.14 ± 0.01 and the “average EAG response” value stood at 0.19 ± 0.01.

(Values after publication PMC9967674, “Characterization and Functional Analysis of OcomOBP7 in Ophraella communa Lesage” (Insects, 2023).)
